According to EP0487030A2, “Process of optical resolution for the preparation of an optically active cyclic amine” (SHIONOGI SEIYAKU KABUSHIKI KAISHA trading under the name of …, priority 1990, dated 1992):
In brackets after ≈: the same amount, converted by molar mass. Where two headings read alike, the source gives them in different places.

Columns and labels:
Test in all cases: Minimum growth inhibitory concentration, method of the Japan Society of Chemotherapy
Type in all cases: cell-based
[1] = test system: Escherichia coli SR5038 OFLX-R; details: SR5038OFLXR, read-out: Minimum Inhibitory Concentration
Description: (§1) The results are shown in Table 1. • (A) : Staphylococcus aureus SR3131 • (B) : Staphylococcus aureus SR3637 • (C) : Staphylococcus aureus SR57690FLX-R* • (D) : Streptococcus pneumoniae • (E) : Streptococcus faecalis SR58180FLX-R* • (F) : Escherichia coli EC-7437 • (G) : Escherichia coli SR5038 OFLX-R* * : ofloxacin resistant bacteria

Escherichia coli EC-7437 = details: EC7437; bacteria F: Escherichia coli EC-7437; bacteria ×10⁶/ml
Description: as §1

Streptococcus pneumoniae = details: bacteria D: Streptococcus pneumoniae; bacteria ×10⁶/ml
Description: as §1

[2] = test system: Staphylococcus aureus SR3131; details: bacteria A: Staphylococcus aureus SR3131; bacteria ×10⁶/ml
Description: as §1

[3] = test system: Staphylococcus aureus SR57690FLX-R; details: SR57690FLXR, read-out: Minimum Inhibitory Concentration
Description: as §1

[4] = test system: Streptococcus faecalis SR58180FLX-R; details: Enterococcus faecalis, SR58180FLXR, read-out: Minimum Inhibitory Concentration
Description: as §1

[5] = test system: Staphylococcus aureus SR3637; details: bacteria B: Staphylococcus aureus SR3637; bacteria ×10⁶/ml
Description: as §1

| SMILES | MIC ([1]; Escherichia coli) | MIC (Escherichia coli EC-7437) | MIC (Streptococcus pneumoniae) | MIC [2] | MIC [3] | MIC [4] | MIC [5] | MIC ([1]; bacteria G: Escherichia coli SR5038 OFLX-R, ofloxacin resistant, bacteria ×10⁶/ml) |
| --- | --- | --- | --- | --- | --- | --- | --- | --- |
| C=C1CN(c2c(F)cc3c(=O)c(C(=O)O)cn(C4CC4)c3c2F)CC1NC (racemic) [Racemate of the compound 1] | 12.5 µg/mL (≈ 33.3 µM) | 0.006 µg/mL (≈ 0.016 µM) | 0.4 µg/mL (≈ 1.07 µM) | 0.1 µg/mL (≈ 0.266 µM) | 6.3 µg/mL (≈ 16.8 µM) | 12.5 µg/mL (≈ 33.3 µM) | 0.1 µg/mL (≈ 0.266 µM) | – |
| C=C1CN(c2c(F)cc3c(=O)c(C(=O)O)cn(C4CC4)c3c2F)C[C@H]1NC [Compound 1, 7-((-)-(S)-3-Methylamino-4-methylenepyrrolidine)-1-cyclopropyl-6,8-difluoro-1,4-dihydro-4-oxo-3-quinolinecarboxylic acid] | 12.5 µg/mL (≈ 33.3 µM) | < 0.003 µg/mL | 0.2 µg/mL (≈ 0.533 µM) | 0.05 µg/mL (≈ 0.133 µM) | 6.3 µg/mL (≈ 16.8 µM) | 6.3 µg/mL (≈ 16.8 µM) | 0.05 µg/mL (≈ 0.133 µM) | – |
| CC1COc2c(N3CCN(C)CC3)c(F)cc3c(=O)c(C(=O)O)cn1c23 (stereo not drawn) [Ofloxacin] | – | < 0.02 µg/mL | 1.6 µg/mL (≈ 4.43 µM) | 0.4 µg/mL (≈ 1.11 µM) | 50 µg/mL (≈ 138 µM) | 100 µg/mL (≈ 277 µM) | 0.4 µg/mL (≈ 1.11 µM) | 50 µg/mL (≈ 138 µM) |
